In the assay the target is T1, HIV-integrase (Human immunodeficiency virus type 1 group M subtype B, UniProt P12497).
T1 construct: Recombinant integrase (0.26 ng) was incubated with the beads
The assay can be described thus: HIV-Integrase Inhibition Activity (SPA bead integration assay with P33 labeled target DNA). It is filed as biochemical. The conditions noted are these: recombinant integrase, class symbols; read-out: in vitro activity. The procedure:
HIV-Integrase Inhibition Activity. To evaluate in-vitro activity against HIV-integrase, 5 pmole of biotin labeled substrate DNA was bound to 100 μg of Streptavidin coated PVT SPA beads (Amersham Pharmacia Biotech). Recombinant integrase (0.26 ng) was incubated with the beads for 90 min at 37° C. Unbound enzyme was removed by washing the complex followed by addition of inhibitors and 0.1 fmol of P33 labeled target DNA. The reaction was stopped by adding EDTA to a final concentration of 10 mM. Samples were counted in TopCountNXT (Packard) and the CPM was used as a measure of integration. The reaction condition was as described in A. Engelman and R. Craigie, J. Virol. 69, 5908-5911 (1995). The sequences of substrate and target DNA were described in Nucleic Acid Research 22, 1121-1122 (1994). Activity equal to A refers to a compound having IC50=<10 nM while B and C denote compounds having […] and IC50>100 nM respectively.
For the compound `O=C(N[C@]12CC[C@H](CCn3c1nc(C(=O)NCc1ccc(F)cc1)c(O)c3=O)C2)C(=O)N1CC[C@@H](F)C1` [Example 417, 8,1,1-Methano-4H-pyrimido[1,2-a]azocine-2-carboxamide, N-[(4-fluorophenyl)methyl]-11-[[2-[(3R)-3-fluoro-1-pyrrolidinyl]-1,2-dioxoethyl]amino]-6,7,8,9,10,11-hexahydro-3-hydroxy-4-oxo-, (8R,11S)—], the IC50 was under 10 nM. As for `Cc1cc(CNC(=O)c2nc3n(c(=O)c2O)CC2CCC3(NC(=O)c3ccccn3)CC2)ccc1F` [Example 313, 7,10-Ethanopyrimido[1,2-a]azepine-2-carboxamide, N-[(4-fluoro-3-methylphenyl)methyl]-4,6,7,8,9,10-hexahydro-3-hydroxy-4-oxo-10-[(2-pyridinylcarbonyl)amino]-], the IC50 was under 10 nM. As for `O=C(NC12CCC(CC1)Cn1c2nc(C(=O)NCc2ccc(F)cc2)c(O)c1=O)C(=O)N1CC[C@H](F)C1` [Example 103, N-(4-Fluorobenzyl)-10-((((3S)-3-fluoro-1-pyrrolidinyl)(oxo)acetyl)amino)-3-hydroxy-4-oxo-4,6,7,8,9,10-hexahydro-7,10-ethanopyrimido[1,2-a]azepine-2-carboxamide], the figure is under 10 nM; as for `CCN(C(=O)C(=O)N(C)C)C12CCC(CC1)Cn1c2nc(C(=O)NCc2ccc(F)cc2)c(O)c1=O` [Example 173, N-Ethyl-N-(2-((4-fluorobenzyl)carbamoyl)-3-hydroxy-4-oxo-6,7,8,9-tetrahydro-7,11-ethanopyrimido[1,2-a]azepin-10(4H)-yl)-N′,N′-dimethylethanediamide], under 10 nM.

As for `O=C(NC12CCC(CC1)Cn1c2nc(C(=O)NCc2ccc(F)cc2)c(O)c1=O)C(=O)N1CCNCC1` [Example 62, N-(4-Fluorobenzyl)-3-hydroxy-4-oxo-10-((oxo(1-piperazinyl)acetyl)amino)-4,6,7,8,9,10-hexahydro-7,10-ethanopyrimido[1,2-a]azepine-2-carboxamide], the IC50 was under 10 nM. As for `CC(C)(O)C(=O)NC12CCC(CC1)Cn1c2nc(C(=O)NCc2ccc(F)cc2)c(O)c1=O` [Example 261, 7,10-Ethanopyrimido[1,2-a]azepine-2-carboxamide, N-[(4-fluorophenyl)methyl]-4,6,7,8,9,10-hexahydro-3-hydroxy-10-[(2-hydroxy-2-methyl-1-oxopropyl)amino]-4-oxo-], the figure is under 10 nM. As for `CN(C)C(=O)C(=O)N(C)C12CCC(CC1)Cn1c2nc(C(=O)NCc2ccc3c(c2)OCO3)c(O)c1=O` [Example 161, N-(2-((1,3-Benzodioxol-5-ylmethyl)carbamoyl)-3-hydroxy-4-oxo-6,7,8,9-tetrahydro-7,10-ethanopyrimido[1,2-a]azepin-10(4H)-yl)-N,N′,N′-trimethylethanediamide], the figure is under 10 nM; as for `COC1CCN(C(=O)C(=O)NC23CCC(CC2)Cn2c3nc(C(=O)NCc3ccc(F)cc3)c(O)c2=O)C1` (centres unmarked) [Example 90, N-(4-Fluorobenzyl)-3-hydroxy-10-(((3-methoxy-1-pyrrolidinyl)(oxo)acetyl)amino)-4-oxo-4,6,7,8,9,10-hexahydro-7,10-ethanopyrimido[1,2-a]azepine-2-carboxamide], under 10 nM. As for `CN(C)C(=O)C(=O)NC12CCC(CC1)Cn1c2nc(C(=O)NCC2CCCO2)c(O)c1=O` (centres unmarked) [Example 338], the figure is over 100 nM.

In the case of `CN(C)C(=O)C(=O)NC12CCC(CC1)Cn1c2nc(C(=O)NCc2ccc(F)c(Br)c2)c(O)c1=O` [Example 115, N′-(2-((3-Bromo-4-fluorobenzyl)carbamoyl)-3-hydroxy-4-oxo-6,7,8,9-tetrahydro-7,10-ethanopyrimido[1,2-a]azepin-10(4H)-yl)-N,N-dimethylethanediamide], the IC50 was under 10 nM. Then `Cc1cc(CNC(=O)c2nc3n(c(=O)c2O)CC2CCC3(NC(=O)C(=O)N(C)C)CC2)nn1C(C)(C)C` [Example 236, Ethanediamide, N′-[2-[[[[1-(1,1-dimethylethyl)-5-methyl-1H-pyrazol-3-yl]methyl]amino]carbonyl]-6,7,8,9-tetrahydro-3-hydroxy-4-oxo-7,10-ethanopyrimido[1,2-a]azepin-10(4H)-yl]-N,N-dimethyl-], with 10 to 100 nM. Consider `CN(C)C(=O)C(=O)NC12CCC(CC1)Cn1c2nc(C(=O)NCc2cc(Cl)cc(Cl)c2)c(O)c1=O` [Example 383], for which the IC50 is under 10 nM. As for `O=C(NC12CCC(CC1)Cn1c2nc(C(=O)NCc2ccc(F)cc2)c(O)c1=O)C(=O)N1CCN(C(=O)C2CCCO2)CC1` (centres unmarked) [Example 74, N-(4-Fluorobenzyl)-3-hydroxy-4-oxo-10-((oxo(4-(tetrahydro-2-furanylcarbonyl)-1-piperazinyl)acetyl)amino)-4,6,7,8,9,10-hexahydro-7,10-ethanopyrimido[1,2-a]azepine-2-carboxamide], the figure is under 10 nM. Then `CNC(=O)NC12CCC(CC1)Cn1c2nc(C(=O)NCc2ccc(F)c(C)c2)c(O)c1=O` [Example 327, 7,10-Ethanopyrimido[1,2-a]azepine-2-carboxamide, N-[(4-fluoro-3-methylphenyl)methyl]-4,6,7,8,9,10-hexahydro-3-hydroxy-10-[[(methylamino)carbonyl]amino]-4-oxo-], with under 10 nM; and `Cc1cc(CNC(=O)c2nc3n(c(=O)c2O)CC2CCC3(NC(=O)c3ccncc3)CC2)ccc1F` [Example 309, 7,10-Ethanopyrimido[1,2-a]azepine-2-carboxamide, N-[(4-fluoro-3-methylphenyl)methyl]-4,6,7,8,9,10-hexahydro-3-hydroxy-4-oxo-10-[(4-pyridinylcarbonyl)amino]-], with under 10 nM; and `CN(C)C(=O)C(=O)NC12CCC(CC1)Cn1c2nc(C(=O)NCc2cccs2)c(O)c1=O` [Example 361], with under 10 nM.

On to `CO[C@@H]1C[C@@H](C(=O)NC23CCC(CC2)Cn2c3nc(C(=O)NCc3ccc(F)cc3)c(O)c2=O)N(S(C)(=O)=O)C1` [Example 274, 7,10-Ethanopyrimido[1,2-a]azepine-2-carboxamide, N-[(4-fluorophenyl)methyl]-4,6,7,8,9,10-hexahydro-3-hydroxy-10-[[[(2S,4R)-4-methoxy-1-(methylsulfonyl)-2-pyrrolidinyl]carbonyl]amino]-4-oxo-], for which the IC50 is under 10 nM. Take `CC(C)N(C)C(=O)C(=O)NC12CCC(CCn3c1nc(C(=O)NCc1ccc(F)cc1)c(O)c3=O)C2` (centres unmarked) [Example 206, Ethanediamide, N′-[2-[[[(4-fluorophenyl)methyl]amino]carbonyl]-7,8,9,10-tetrahydro-3-hydroxy-4-oxo-8,11-methano-4H-pyrimido[1,2-a]azocin-11(6H)-yl]-N-methyl-N-(1-methylethyl)-]: the IC50 is under 10 nM. Then `O=C(N[C@@]12CC[C@@H](CCn3c1nc(C(=O)NCc1ccc(F)cc1)c(O)c3=O)C2)C(=O)N1CC[C@@H](F)C1` [Example 418, 8,1,1-Methano-4H-pyrimido[1,2-a]azocine-2-carboxamide, N-[(4-fluorophenyl)methyl]-11-[[2-[(3R)-3-fluoro-1-pyrrolidinyl]-1,2-dioxoethyl]amino]-6,7,8,9,10,11-hexahydro-3-hydroxy-4-oxo-, (8S,11R)—], with under 10 nM. Then `CN(C)C(=O)C(=O)NC12CCC(CC1)Cn1c2nc(C(=O)NCCCn2ccnc2)c(O)c1=O` [Example 350], with over 100 nM; and `O=C(NC12CCC(CC1)Cn1c2nc(C(=O)NCc2ccc(F)cc2)c(O)c1=O)C(=O)N1CCC(F)(F)C1` [Example 70, 10-(((3,3-Difluoro-1-pyrrolidinyl)(oxo)acetyl)amino)-N-(4-fluorobenzyl)-3-hydroxy-4-oxo-4,6,7,8,9,10-hexahydro-7,10-ethanopyrimido[1,2-a]azepine-2-carboxamide], with under 10 nM. Then `CN(C)C(=O)C(=O)N(C)C12CCC(CC1)Cn1c2nc(C(=O)NCc2ccc(F)c(Cl)c2)c(O)c1=O` [Example 158, N-(2-((3-Chloro-4-fluorobenzyl)carbamoyl)-3-hydroxy-4-oxo-6,7,8,9-tetrahydro-7,10-ethanopyrimido[1,2-a]azepin-10(4H)-yl)-N,N′,N′-trimethylethanediamide], with under 10 nM; and `COCCN(C)C(=O)C(=O)NC12CCC(CC1)Cn1c2nc(C(=O)NCc2ccc(F)cc2)c(O)c1=O` [Example 100, N′-(2-((4-Fluorobenzyl)carbamoyl)-3-hydroxy-4-oxo-6,7,8,9-tetrahydro-7,10-ethanopyrimido[1,2-a]azepin-10(4H)-yl)-N-(2-methoxyethyl)-N-methylethanediamide], with under 10 nM; and `Cc1cc(CNC(=O)c2nc3n(c(=O)c2O)CC2CCC3(NC(=O)c3cccnc3)CC2)ccc1F` [Example 312, 7,10-Ethanopyrimido[1,2-a]azepine-2-carboxamide, N-[(4-fluoro-3-methylphenyl)methyl]-4,6,7,8,9,10-hexahydro-3-hydroxy-4-oxo-10-[(3-pyridinylcarbonyl)amino]-], with under 10 nM. In the case of `CN(C)C(=O)C(=O)NC12CCC(CC1)Cn1c2nc(C(=O)NCc2cccc(Cl)c2)c(O)c1=O` [Example 380], the IC50 is under 10 nM. Then `CN(C12CCC(CC1)Cn1c2nc(C(=O)NCc2ccc(F)cc2)c(O)c1=O)S(C)(=O)=O` [Example 155, N-(4-Fluorobenzyl)-3-hydroxy-10-(methyl(methylsulfonyl)amino)-4-oxo-4,6,7,8,9,10-hexahydro-7,10-ethanopyrimido[1,2-a]azepine-2-carboxamide], with under 10 nM.
